Data: the NIST ThermoML archive (doi:10.1016/j.fluid.2019.05.003)
Numbers after ± are expanded uncertainties.

Experiment: xn = mol fraction of the nth substance listed
Conditions: 101 kPa, Liquid; for viscosity: Falling or rolling sphere viscometry; for mass density: Vibrating tube method

C[N+]1(CCO)CCOCC1.[Br-] [N-methyl-N-(2-hydroxyethyl)morpholinium bromide] + O
Conditions	mass density [kg/m3]	viscosity [mPa·s]
298.15 K, x1 = 0.023	1078.7 ± 0.6	1.173 ± 0.071
298.15 K, x1 = 0.038	1121 ± 0.6	1.482 ± 0.09
298.15 K, x1 = 0.051	1150.9 ± 0.5	1.716 ± 0.1
298.15 K, x1 = 0.075	1197.8 ± 0.4	2.345 ± 0.14
298.15 K, x1 = 0.097	1232 ± 0.4	3.195 ± 0.19
298.15 K, x1 = 0.124	1264.8 ± 0.4	4.717 ± 0.29
298.15 K, x1 = 0.157	1297.5 ± 0.4	7.331 ± 0.44
298.15 K, x1 = 0.197	1328.8 ± 0.4	14.15 ± 0.86
298.15 K, x1 = 0.227	1345.7 ± 0.4	20.61 ± 1.2
303.15 K, x1 = 0.023	1076.7 ± 0.6	1.058 ± 0.064
303.15 K, x1 = 0.038	1118.8 ± 0.6	1.33 ± 0.08
303.15 K, x1 = 0.051	1148.6 ± 0.5	1.536 ± 0.093
303.15 K, x1 = 0.075	1195.3 ± 0.4	2.087 ± 0.13
303.15 K, x1 = 0.097	1229.3 ± 0.4	2.831 ± 0.17
303.15 K, x1 = 0.124	1262 ± 0.4	4.126 ± 0.25
303.15 K, x1 = 0.157	1294.6 ± 0.4	6.314 ± 0.38
303.15 K, x1 = 0.197	1325.9 ± 0.4	12.14 ± 0.74
303.15 K, x1 = 0.227	1342.8 ± 0.4	17.39 ± 1.1
308.15 K, x1 = 0.023	1074.6 ± 0.6	0.962 ± 0.058
308.15 K, x1 = 0.038	1116.5 ± 0.6	1.206 ± 0.073
308.15 K, x1 = 0.051	1146.2 ± 0.5	1.385 ± 0.084
308.15 K, x1 = 0.075	1192.7 ± 0.4	1.878 ± 0.11
308.15 K, x1 = 0.097	1226.6 ± 0.4	2.526 ± 0.15
308.15 K, x1 = 0.124	1259.2 ± 0.4	3.653 ± 0.22
308.15 K, x1 = 0.157	1291.7 ± 0.4	5.635 ± 0.34
308.15 K, x1 = 0.197	1322.9 ± 0.4	10.46 ± 0.63
308.15 K, x1 = 0.227	1339.7 ± 0.4	14.76 ± 0.89
313.15 K, x1 = 0.023	1072.3 ± 0.6	0.88 ± 0.053
313.15 K, x1 = 0.038	1114.1 ± 0.6	1.101 ± 0.067
313.15 K, x1 = 0.051	1143.6 ± 0.5	1.26 ± 0.076
313.15 K, x1 = 0.075	1190 ± 0.4	1.7 ± 0.1
313.15 K, x1 = 0.097	1223.8 ± 0.4	2.278 ± 0.14
313.15 K, x1 = 0.124	1256.4 ± 0.4	3.255 ± 0.2
313.15 K, x1 = 0.157	1288.8 ± 0.4	4.938 ± 0.3
313.15 K, x1 = 0.197	1319.9 ± 0.4	9.042 ± 0.55
313.15 K, x1 = 0.227	1336.7 ± 0.4	12.6 ± 0.76
318.15 K, x1 = 0.023	1069.8 ± 0.6	0.81 ± 0.049
318.15 K, x1 = 0.038	1111.6 ± 0.6	1.011 ± 0.061
318.15 K, x1 = 0.051	1141 ± 0.5	1.154 ± 0.07
318.15 K, x1 = 0.075	1187.3 ± 0.4	1.547 ± 0.094
318.15 K, x1 = 0.097	1221 ± 0.4	2.062 ± 0.12
318.15 K, x1 = 0.124	1253.5 ± 0.4	2.921 ± 0.18
318.15 K, x1 = 0.157	1285.8 ± 0.4	4.371 ± 0.27
318.15 K, x1 = 0.197	1316.9 ± 0.4	7.869 ± 0.48
318.15 K, x1 = 0.227	1333.7 ± 0.4	10.85 ± 0.66
323.15 K, x1 = 0.023	–	0.754 ± 0.046
323.15 K, x1 = 0.038	–	0.933 ± 0.056
323.15 K, x1 = 0.051	–	1.061 ± 0.064
323.15 K, x1 = 0.075	–	1.416 ± 0.086
323.15 K, x1 = 0.097	–	1.88 ± 0.11
323.15 K, x1 = 0.124	–	2.641 ± 0.16
323.15 K, x1 = 0.157	–	3.899 ± 0.24
323.15 K, x1 = 0.197	–	6.877 ± 0.42
323.15 K, x1 = 0.227	–	9.429 ± 0.57
